Peptide text beside a SMILES is read from it.
System: ZIKV strain MR766
Experiment: Extracellular ZIKV RNA in supernatants of infected human fetal astrocytes (real-time RT-PCR)
Type: cell-based, Zika virus
Settings: ZIKV MOI 0.5, 48 h, cell-free supernatants
Method: Total mRNA was isolated with TRIzol Reagent (Thermo Fisher Scientific) and RNeasy Mini Kit (QIAGEN Inc., Valencia, CA, USA) following the manufacturer’s recommendations. Two real-time RT-PCR methods were used for the current studies. First, SYBR Green-based RT-PCR assay was used to determine intracellular ZIKV RNA in Vero cells. For this assay, reverse transcription was performed using Verso cDNA synthesis Kit (Thermo Fisher Scientific) and 1 µg of total RNA in a 15-µL final volume. The RT-PCR analyses were performed using 7.5-µL SYBR Green PCR Master Mix (Thermo Fisher Scientific) with 0.5-µL cDNA, 1.5-µL H2O, 5.5-µL oligonucleotide primer pairs at 10 µM. […] GG-3. PCR program: 1, 50°C for 2 min; 2, 95°C for 2 min; 3, 95°C for 15 s; 4, specific annealing temperature for 15 s; 5, 72°C for 1 min. Steps 2–4 were repeated 40 times. All samples were amplified in triplicate for analysis. Relative ZIKV RNA levels were determined and standardized with a GAPDH internal control using comparative ΔΔCT method ([35]). Second, TaqMan-based RT-PCR assay was used to determine intracellular ZIKV RNA and other gene expressions in Figures 3–6 and extracellular ZIKV RNA in Figure 3. The TaqMan assay was performed in a StepOne^TM Real-Time PCR system (Thermo Fisher Scientific). Primers used for TaqMan real-time RT-PCR were all from the Thermo Fisher Scientific, which included ZIKV (forward sequence: 5-[…]-3, reverse sequence: 5- […]-3, and probe sequence: 5′-[…]-3), IFN-α2 (Hs00265051_s1), IFN-β1 (Hs01077958_s1), eukaryotic 18-s rRNA (Hs99999901_s1), β-actin (Hs99999903_m1), and GAPDH (Catalog number: 4310884E). Relative ZIKV mRNA levels were determined and standardized with a GAPDH or 18-s rRNA endogenous control using comparative ΔΔCT method ([35]). […] Quantitative genomic RNA from ZIKV (NR-1838DQ, ATCC) was used as a standard to calculate viral copies.
(A) Human fetal astrocytes were treated with doses of the selected peptides ranging from 1 to 50 µM. […] Cell viability was determined by a colorimetric MTS assay. […] Data were analyzed by nonlinear regression and assessed the EC50 for each of the antimicrobial peptides. […] At the experimental endpoint, intracellular ZIKV RNA (B) was determined through real-time RT-PCR in total cellular RNA. […] Extracellular ZIKV RNA [(C), in log scale] was determined through real-time RT-PCR using total RNA isolated from cell-free supernatants. ZIKV virion levels (in log scale) were determined by adding cell-free culture supernatants to Vero cells and overlaid with Agar gel in viral PFA (D). Viral plaques were manually counted and calculated as PFU/mL (E). * p < 0.05, ** p < 0.01, and *** p < 0.001, as compared with the ZIKV group without peptide treatment (ANOVA, N = 3).

Compound: CC[C@H](C)[C@H](NC(=O)[C@H](CCCNC(=N)N)NC(=O)[C@H](CCC(N)=O)NC(=O)[C@@H](NC(=O)[C@@H](NC(=O)[C@H](CCCNC(=N)N)NC(=O)[C@H](CCCCN)NC(=O)[C@H](Cc1ccccc1)NC(=O)CN)[C@@H](C)CC)C(C)C)C(=O)N[C@@H](CCCCN)C(=O)N[C@@H](CC(=O)O)C(=O)N[C@@H](Cc1ccccc1)C(=O)N[C@@H](CC(C)C)C(=O)N[C@@H](CCCNC(=N)N)C(=O)N[C@@H](CC(N)=O)C(=O)N[C@@H](CC(C)C)C(=O)N[C@H](C(N)=O)C(C)C [GF-17] (H-GFKRIVQRIKDFLRNLV-NH2; N-terminus and C-terminus assumed)
- Extracellular ZIKV RNA in culture supernatants, reduced to % of untreated (peptide 2 µM): 16.7%
- Extracellular ZIKV RNA in culture supernatants, reduced to % of untreated (peptide 10 µM): 0.1%

Compound: CC[C@H](C)[C@H](NC(=O)[C@H](CCCCN)NC(=O)[C@H](CCCCN)NC(=O)[C@H](Cc1ccccc1)NC(=O)[C@H](CC(C)C)NC(=O)[C@H](CCCCN)NC(=O)[C@H](CCCCN)NC(=O)[C@H](Cc1ccccc1)NC(=O)[C@H](CCCCN)NC(=O)[C@H](CCCCN)NC(=O)[C@H](CCCNC(=N)N)NC(=O)[C@H](Cc1ccccc1)NC(=O)[C@H](CCCNC(=N)N)NC(=O)[C@H](CCCCN)NC(=O)[C@H](Cc1ccccc1)NC(=O)[C@H](CCCNC(=N)N)NC(=O)CN)C(=O)N[C@@H](CO)C(=O)O [BMAP-18] (H-GRFKRFRKKFKKLFKKIS-OH; N-terminus and C-terminus assumed)
- Extracellular ZIKV RNA in culture supernatants, reduced to % of untreated (peptide 2 µM): 5.6%
- Extracellular ZIKV RNA in culture supernatants, reduced to % of untreated (peptide 10 µM): 1.3%

Reference: paper PMC5906549, “Cathelicidin-Derived Antimicrobial Peptides Inhibit Zika Virus Through Direct Inactivation and Interferon Pathway” (Frontiers in Immunology, 2018)
